These results are taken from patent US11814405B2, “Pyridine sulfonamide phosphate compound, preparation method therefor, and use thereof” (Shanghai Xunhe Pharmaceutical Technology Co. Ltd., priority 2019, dated 2023).

“Also recorded” adds a separate entry of the source.

One series deals with Male SD rats. Kind of series: Comparison of diuretic effects: urine output in saline-loaded rats. Format: in vivo, rat. The note with it: 10 mg/kg, ig, after 30 mL/kg normal saline, urine collected for 4 h. As for the experimental part: Male SD rats (body weight: 180±20 g) were randomly divided into 14 groups with 3 rats in each group. Each rat was administrated 30 mL/kg normal saline through intragastric administration. After intragastric administration of normal saline, except the blank control group, each group was administrated one drug (10 mg/kg, ig, 1 mg/mL, formulation prescription: normal saline dissolution). Urination for 4 h was collected.

For series [1] the following is noted: cited from earlier work.
The conditions of series [2]: active metabolite in vivo, compared with torsemide (Drugs 41 (1): 81-103, 1991); cited from earlier work.
The nature of series [3]: Comparison of water solubility. As to conditions: for Phenomenon: at the API:water ratio given.

`Cc1cc(Nc2ccncc2S(=O)(=O)NC(=O)NC(C)C)ccc1O` [Compound M3] displayed a Urine output in the series with Male SD rats of 107.2 mL/kg. In addition, the solubility in water entry in series [1] is listed as “has not been effectively improved”. Moreover, in series [2], the pharmacological activity result was “comparable to torsemide”. In series [3], the Phenomenon result is listed as “Completely dissolved” and the “Conclusion (water solubility)” value is given as “Slightly soluble”.

As to `Cc1cccc(Nc2ccncc2S(=O)(=O)NC(=O)NC(C)C)c1` [Torsemide, 1-[4-(3-methylphenyl)aminopyridin-3-yl]sulfonyl-3-isopropylurea], the Urine output in the series with Male SD rats was 105.3 mL/kg. The “solubility in 0.1 mol/L sodium hydroxide solution” value in series [1] (0.1 mol/L sodium hydroxide solution) is given as “slightly soluble”. Besides, the solubility in water result in series [1] is listed as “almost insoluble in water; also recorded: very slightly soluble in water”. In addition, in series [3], the Phenomenon entry is on record as “Completely dissolved” and the “Conclusion (water solubility)” value is “Very slightly”.
